CC1(C)S[C@@H]2[C@H](NC(=O)[C@H](NC(=O)N3CCNC3=O)c3ccccc3)C(=O)N2[C@H]1C(=O)O
solubility (mole fraction)
Conditions | 278.15 K | 283.15 K | 288.15 K | 293.15 K | 298.15 K | 303.15 K | 308.15 K | 313.15 K | 318.15 K | 323.15 K
in THF | 0.00106 | 0.00115 | 0.00131 | 0.00149 | 0.00164 | 0.00178 | 0.00199 | 0.00218 | 0.00243 | 0.00276
in acetone | 0.000492 | 0.000572 | 0.000667 | 0.000823 | 0.000919 | 0.00112 | 0.00133 | 0.00155 | 0.00192 | 0.00223
in acetonitrile | 0.000491 | 0.000551 | 0.000643 | 0.000757 | 0.000836 | 0.000934 | 0.00108 | 0.00122 | 0.00137 | 0.00156
in ethanol | 0.000687 | 0.000805 | 0.000954 | 0.00113 | 0.00131 | 0.00165 | 0.00197 | 0.00245 | 0.00296 | 0.00368
in ethyl acetate | 0.000219 | 0.000243 | 0.000287 | 0.000311 | 0.000353 | 0.000411 | 0.000462 | 0.000528 | 0.000613 | 0.000688
in isopropanol | 9.02e-05 | 0.000111 | 0.000132 | 0.000162 | 0.000196 | 0.00024 | 0.000289 | 0.000376 | 0.000456 | 0.000557
in isopropyl acetate | 6.88e-05 | 7.89e-05 | 9.25e-05 | 0.000102 | 0.000116 | 0.00013 | 0.000148 | 0.00017 | 0.000192 | 0.000219
in methanol | 0.000281 | 0.00033 | 0.000403 | 0.000478 | 0.000602 | 0.000728 | 0.000948 | 0.00115 | 0.00142 | 0.00178
in methyl acetate | 0.00027 | 0.000313 | 0.000372 | 0.000463 | 0.000565 | 0.000651 | 0.000758 | 0.000921 | 0.00107 | 0.0013

From BigSolDB 2.1
